Source: ChEMBL document CHEMBL2380214, “Novel hybrids of (phenylsulfonyl)furoxan and anilinopyrimidine as potent and selective epidermal growth factor receptor inhibitors for intervention of non-small-cell lung cancer” (J Med Chem, 2013)
Activity calls are given as the source filed them. No cut-off for these calls is given here.

Tests used:
[1] = Induction of NO production in human 16HBE14o- cells harboring wild type EGFR assessed as increase in nitrite level at 100 uM after 150 mins by Griess assay; type: cell-based; conditions: 2.5 h
[2] = tested on: NCI-H1975; assay: Inhibition of NFkappaB phosphorylation in gefitinib-resistant human NCI-H1975 cells harboring EGFR L858R/[…] double mutant at 0.01 to 1 uM after 24 hrs by Western blot analysis; type: cell-based
[3] = Selectivity ratio of IC50 for human BEAS2B cells harboring wild type EGFR to IC50 for gefitinib-sensitive human HCC827 cells harboring EGFR […] deletion mutant; type: ADME, cell-based; conditions: read-out: Ratio IC50
[4] = tested on: Epidermal growth factor receptor (Homo sapiens), P00533 [L858R,T790M]; assay: Inhibition of EGFR L858R/[…] double mutant phosphorylation in gefitinib-resistant human NCI-H1975 cells assessed as inhibition of AKT phosphorylation after 24 hrs by Western blot analysis; type: cell-based
Epidermal growth factor receptor (Homo sapiens), P00533 [L858R,T790M], sequence (P00533 whole entry T790M/L858R, looked up): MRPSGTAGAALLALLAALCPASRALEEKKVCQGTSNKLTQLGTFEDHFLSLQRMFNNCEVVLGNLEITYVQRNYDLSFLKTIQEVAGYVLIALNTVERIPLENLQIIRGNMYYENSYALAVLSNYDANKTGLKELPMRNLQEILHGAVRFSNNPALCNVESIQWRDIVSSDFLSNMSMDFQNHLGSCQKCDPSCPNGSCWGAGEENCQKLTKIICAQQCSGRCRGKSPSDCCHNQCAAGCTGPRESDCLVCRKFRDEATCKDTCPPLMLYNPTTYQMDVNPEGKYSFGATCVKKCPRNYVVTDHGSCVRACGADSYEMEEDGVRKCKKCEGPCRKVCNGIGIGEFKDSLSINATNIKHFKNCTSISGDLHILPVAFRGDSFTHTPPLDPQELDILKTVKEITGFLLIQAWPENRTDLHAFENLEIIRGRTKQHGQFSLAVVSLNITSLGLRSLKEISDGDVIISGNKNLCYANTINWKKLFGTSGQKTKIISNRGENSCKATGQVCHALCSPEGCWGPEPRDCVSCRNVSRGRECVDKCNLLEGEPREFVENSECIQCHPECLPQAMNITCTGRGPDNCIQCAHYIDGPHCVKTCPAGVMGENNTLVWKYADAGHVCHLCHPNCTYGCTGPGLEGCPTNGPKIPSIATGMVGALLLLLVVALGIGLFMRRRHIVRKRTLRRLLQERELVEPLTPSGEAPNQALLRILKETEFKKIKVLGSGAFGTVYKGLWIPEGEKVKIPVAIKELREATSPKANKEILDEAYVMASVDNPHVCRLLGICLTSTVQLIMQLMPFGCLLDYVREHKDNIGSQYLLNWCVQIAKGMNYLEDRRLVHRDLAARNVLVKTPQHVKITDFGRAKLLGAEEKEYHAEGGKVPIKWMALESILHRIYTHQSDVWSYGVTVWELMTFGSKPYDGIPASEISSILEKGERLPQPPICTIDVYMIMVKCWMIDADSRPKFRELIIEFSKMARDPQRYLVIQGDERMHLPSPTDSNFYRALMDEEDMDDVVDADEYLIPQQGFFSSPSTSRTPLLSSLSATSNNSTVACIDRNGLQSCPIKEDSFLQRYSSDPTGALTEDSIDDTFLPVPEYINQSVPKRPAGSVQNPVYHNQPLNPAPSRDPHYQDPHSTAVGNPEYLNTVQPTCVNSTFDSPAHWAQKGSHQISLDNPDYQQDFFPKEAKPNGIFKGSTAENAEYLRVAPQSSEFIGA

[5] = tested on: Mus musculus; assay: Toxicity in athymic BALB/c nude mouse xenografted with gefitinib-resistant human NCI-H1975 cells harboring EGFR L858R/[…] double mutant assessed as body mass loss at 14 mg/kg, ip qd administered for 14 days measured every other day during compound administration relative to vehicle-treated control; type: organism-based; set-up: dose 14 mg/kg, route intraperitoneal; conditions: in vivo, 336 h
[6] = Selectivity ratio of IC50 for human A549 cells harboring wild type EGFR and k-RAS mutation to IC50 for gefitinib-resistant human NCI-H1975 cells harboring EGFR L858R/[…] double mutant; type: ADME, cell-based
[7] = Selectivity ratio of IC50 for human BEAS2B cells harboring wild type EGFR to IC50 for gefitinib-resistant human NCI-H1975 cells harboring EGFR L858R/[…] double mutant; type: ADME, cell-based; conditions: read-out: Ratio IC50
[8] = biological target: Epidermal growth factor receptor (Homo sapiens, UniProt P00533, L858R/T790M); type: protein assay
Epidermal growth factor receptor (Homo sapiens, UniProt P00533, L858R/T790M), sequence (P00533 25-1210 T790M/L858R limits assumed): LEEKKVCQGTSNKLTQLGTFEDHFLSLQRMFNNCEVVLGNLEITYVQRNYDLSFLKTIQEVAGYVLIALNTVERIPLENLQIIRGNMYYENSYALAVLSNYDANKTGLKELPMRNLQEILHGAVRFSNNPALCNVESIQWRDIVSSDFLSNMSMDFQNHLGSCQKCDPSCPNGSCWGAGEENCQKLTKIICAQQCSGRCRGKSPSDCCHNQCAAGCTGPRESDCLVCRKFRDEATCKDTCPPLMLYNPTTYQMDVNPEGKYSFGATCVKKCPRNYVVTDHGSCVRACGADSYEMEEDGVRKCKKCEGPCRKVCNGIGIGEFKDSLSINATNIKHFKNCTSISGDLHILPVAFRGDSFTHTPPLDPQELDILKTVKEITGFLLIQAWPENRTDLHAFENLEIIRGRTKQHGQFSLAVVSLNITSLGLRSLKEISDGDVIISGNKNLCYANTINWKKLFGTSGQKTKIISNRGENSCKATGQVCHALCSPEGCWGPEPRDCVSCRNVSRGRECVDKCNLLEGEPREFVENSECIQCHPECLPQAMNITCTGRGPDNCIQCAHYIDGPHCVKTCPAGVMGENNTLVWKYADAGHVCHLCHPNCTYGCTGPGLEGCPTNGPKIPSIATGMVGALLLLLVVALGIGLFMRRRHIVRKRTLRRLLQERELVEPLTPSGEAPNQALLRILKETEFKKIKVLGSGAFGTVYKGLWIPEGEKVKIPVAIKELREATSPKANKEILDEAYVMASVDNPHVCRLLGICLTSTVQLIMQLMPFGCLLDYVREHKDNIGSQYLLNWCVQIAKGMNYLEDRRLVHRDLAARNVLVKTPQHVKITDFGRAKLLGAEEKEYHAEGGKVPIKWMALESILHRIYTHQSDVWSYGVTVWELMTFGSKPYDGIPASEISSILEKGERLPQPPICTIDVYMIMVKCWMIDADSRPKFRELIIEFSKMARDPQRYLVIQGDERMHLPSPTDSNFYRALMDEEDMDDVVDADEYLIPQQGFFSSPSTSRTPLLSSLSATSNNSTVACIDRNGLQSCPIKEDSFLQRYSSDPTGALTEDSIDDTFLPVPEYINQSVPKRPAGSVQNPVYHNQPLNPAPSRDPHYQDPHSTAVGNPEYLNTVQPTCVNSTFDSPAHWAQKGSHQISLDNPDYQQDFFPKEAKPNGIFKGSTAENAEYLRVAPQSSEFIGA
Description: Inhibition of EGFR L858R/T790M double mutant (unknown origin) after 1.5 hrs by FRET-based Z'Lyte assay

[9] = tested on: A549; assay: Ratio of compound IC50 to WZ4002 IC50 for human A549 cells harboring wild type EGFR and k-RAS mutation; type: ADME, cell-based
[10] = tested on: A-431; assay: Ratio of compound IC50 to WZ4002 IC50 for human A431 cells overexpressing wild type EGFR; type: ADME, cell-based
[11] = Induction of apoptosis in EGFR-independent human H460 cells at 1 to 5 uM after 24 hrs by annexin-V/7-AAD staining-based FACS flow cytometric analysis; type: cell-based; conditions: nci-h460, 24 h
[12] = Selectivity ratio of IC50 for human 16HBE14o- cells harboring wild type EGFR to IC50 for gefitinib-sensitive human HCC827 cells harboring EGFR […] deletion mutant; type: ADME, cell-based; conditions: read-out: Ratio IC50
[13] = tested on: Epidermal growth factor receptor (Homo sapiens), P00533 [L858R,T790M]; assay: Inhibition of EGFR L858R/[…] double mutant phosphorylation in gefitinib-resistant human NCI-H1975 cells after 24 hrs by Western blot analysis; type: cell-based
[14] = tested on: NCI-H1975; assay: Cytotoxicity against gefitinib-resistant human NCI-H1975 cells harboring EGFR L858R/[…] double mutant assessed as growth inhibition after 72 hrs by MTT assay; type: functional, cell-based; conditions: NCI-H1975, 72 h
[15] = Selectivity ratio of IC50 for human 16HBE14o- cells harboring wild type EGFR to IC50 for gefitinib-resistant human NCI-H1975 cells harboring EGFR L858R/[…] double mutant; type: ADME, cell-based; conditions: read-out: Ratio IC50
[16] = tested on: NCI-H1975; assay: Induction of apoptosis in gefitinib-resistant human NCI-H1975 cells harboring EGFR L858R/[…] double mutant after 24 hrs by annexin-V/7-AAD staining-based FACS flow cytometric analysis; type: functional, cell-based
[17] = cells; type: functional, cell-based; conditions: Homo sapiens, HCC827, 72 h
[18] = Ratio of compound IC50 to WZ4002 IC50 for human BEAS2B cells harboring wild type EGFR; type: ADME, cell-based; conditions: read-out: Ratio IC50
[19] = tested on: A-431; assay: cells; type: ADME, cell-based; conditions: Homo sapiens, A-431, 72 h
Description: Cytotoxicity against human A431 cells overexpressing wild type EGFR assessed as growth inhibition after 72 hrs by MTT assay

[20] = biological target: Epidermal growth factor receptor (Homo sapiens, UniProt P00533, L858R); type: protein assay
Epidermal growth factor receptor (Homo sapiens, UniProt P00533, L858R), sequence (P00533 25-1210 L858R limits assumed): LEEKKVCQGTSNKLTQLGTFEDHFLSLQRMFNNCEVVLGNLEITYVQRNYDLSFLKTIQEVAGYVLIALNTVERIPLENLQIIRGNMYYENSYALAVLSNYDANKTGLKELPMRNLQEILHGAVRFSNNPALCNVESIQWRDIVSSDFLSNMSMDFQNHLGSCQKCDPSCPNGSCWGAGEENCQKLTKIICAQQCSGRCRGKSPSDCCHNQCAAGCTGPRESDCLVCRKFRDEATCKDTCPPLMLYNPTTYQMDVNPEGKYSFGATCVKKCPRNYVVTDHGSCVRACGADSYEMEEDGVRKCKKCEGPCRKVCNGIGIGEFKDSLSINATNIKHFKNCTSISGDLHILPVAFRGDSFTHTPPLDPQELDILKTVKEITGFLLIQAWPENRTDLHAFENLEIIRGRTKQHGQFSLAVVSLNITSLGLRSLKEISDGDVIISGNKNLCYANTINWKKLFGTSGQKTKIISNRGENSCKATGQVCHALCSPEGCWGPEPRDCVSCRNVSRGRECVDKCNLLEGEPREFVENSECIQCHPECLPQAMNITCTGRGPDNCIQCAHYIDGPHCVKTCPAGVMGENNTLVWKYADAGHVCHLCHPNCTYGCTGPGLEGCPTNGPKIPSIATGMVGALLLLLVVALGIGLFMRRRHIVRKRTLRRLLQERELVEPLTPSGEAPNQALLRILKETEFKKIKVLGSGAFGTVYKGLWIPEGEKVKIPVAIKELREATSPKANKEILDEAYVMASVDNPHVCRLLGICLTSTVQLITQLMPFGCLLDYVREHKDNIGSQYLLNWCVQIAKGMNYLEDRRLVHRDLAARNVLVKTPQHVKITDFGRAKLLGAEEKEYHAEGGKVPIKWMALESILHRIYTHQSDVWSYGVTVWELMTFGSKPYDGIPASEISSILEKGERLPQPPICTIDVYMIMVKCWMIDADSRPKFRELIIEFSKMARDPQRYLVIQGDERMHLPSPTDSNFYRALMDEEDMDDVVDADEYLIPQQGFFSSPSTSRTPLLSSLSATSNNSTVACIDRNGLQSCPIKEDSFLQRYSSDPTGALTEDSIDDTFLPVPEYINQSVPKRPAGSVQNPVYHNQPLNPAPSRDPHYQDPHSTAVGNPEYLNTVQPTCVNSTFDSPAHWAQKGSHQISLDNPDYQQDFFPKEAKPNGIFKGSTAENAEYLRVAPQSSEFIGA
Description: Inhibition of EGFR L858R mutant (unknown origin) after 1.5 hrs by FRET-based Z'Lyte assay

[21] = tested on: NCI-H1975; assay: Antitumor activity against gefitinib-resistant human NCI-H1975 cells harboring EGFR L858R/[…] double mutant xenografted in athymic BALB/c nude mouse assessed as tumor growth inhibition at 14 mg/kg, ip qd administered for 14 days measured every other day during compound administration relative to vehicle-treated control; type: functional; conditions: 336 h, route intraperitoneal, read-out: TGI
[22] = tested on: NCI-H1975; assay: Induction of NO production in human NCI-H1975 cells harboring EGFR L858R/[…] double mutant assessed as increase in nitrite level at 100 uM after 150 mins by Griess assay; type: functional, cell-based
[23] = Selectivity ratio of IC50 for human A549 cells harboring wild type EGFR and k-RAS mutation to IC50 for gefitinib-sensitive human HCC827 cells harboring EGFR […] deletion mutant; type: ADME, cell-based
[24] = tested on: A549; assay: cells; type: ADME, cell-based; conditions: Homo sapiens, A549, 72 h
Description: Cytotoxicity against human A549 cells harboring wild type EGFR and k-RAS mutation assessed as growth inhibition after 72 hrs by MTT assay

[25] = cells; type: ADME, cell-based; conditions: Homo sapiens, BEAS-2B, 72 h
Description: Cytotoxicity against human BEAS2B cells harboring wild type EGFR assessed as growth inhibition after 72 hrs by MTT assay

[26] = tested on: NCI-H1975; assay: Cytotoxicity against gefitinib-resistant human NCI-H1975 cells harboring EGFR L858R/[…] double mutant assessed as growth inhibition at 1 uM after 24 hrs by MTT assay in presence of hemoglobin; type: functional, cell-based
[27] = tested on: HCC827; assay: Induction of apoptosis in gefitinib-sensitive human HCC827 cells harboring EGFR […] deletion mutant after 24 hrs by annexin-V/7-AAD staining-based FACS flow cytometric analysis; type: functional, cell-based
[28] = Selectivity ratio of IC50 for human A431 cells overexpressing wild type EGFR to IC50 for gefitinib-sensitive human HCC827 cells harboring EGFR […] deletion mutant; type: ADME, cell-based
[29] = cells; type: ADME, cell-based; conditions: Homo sapiens, 16HBE14o-, 72 h
Description: Cytotoxicity against human 16HBE14o- cells harboring wild type EGFR assessed as growth inhibition after 72 hrs by MTT assay

[30] = tested on: Epidermal growth factor receptor (Homo sapiens), P00533 [L858R,T790M]; assay: Inhibition of EGFR L858R/[…] double mutant phosphorylation in gefitinib-resistant human NCI-H1975 cells assessed as inhibition of ERK phosphorylation after 24 hrs by Western blot analysis; type: cell-based
[31] = Selectivity ratio of IC50 for human A431 cells overexpressing wild type EGFR to IC50 for gefitinib-resistant human NCI-H1975 cells harboring EGFR L858R/[…] double mutant; type: ADME, cell-based
[32] = tested on: HCC827; assay: Cytotoxicity against gefitinib-sensitive human HCC827 cells harboring EGFR […] deletion mutant assessed as growth inhibition at 1 uM after 24 hrs by MTT assay in presence of hemoglobin; type: functional, cell-based
[33] = biological target: Epidermal growth factor receptor (Homo sapiens, UniProt P00533)
Epidermal growth factor receptor (Homo sapiens, UniProt P00533), sequence (P00533 whole entry): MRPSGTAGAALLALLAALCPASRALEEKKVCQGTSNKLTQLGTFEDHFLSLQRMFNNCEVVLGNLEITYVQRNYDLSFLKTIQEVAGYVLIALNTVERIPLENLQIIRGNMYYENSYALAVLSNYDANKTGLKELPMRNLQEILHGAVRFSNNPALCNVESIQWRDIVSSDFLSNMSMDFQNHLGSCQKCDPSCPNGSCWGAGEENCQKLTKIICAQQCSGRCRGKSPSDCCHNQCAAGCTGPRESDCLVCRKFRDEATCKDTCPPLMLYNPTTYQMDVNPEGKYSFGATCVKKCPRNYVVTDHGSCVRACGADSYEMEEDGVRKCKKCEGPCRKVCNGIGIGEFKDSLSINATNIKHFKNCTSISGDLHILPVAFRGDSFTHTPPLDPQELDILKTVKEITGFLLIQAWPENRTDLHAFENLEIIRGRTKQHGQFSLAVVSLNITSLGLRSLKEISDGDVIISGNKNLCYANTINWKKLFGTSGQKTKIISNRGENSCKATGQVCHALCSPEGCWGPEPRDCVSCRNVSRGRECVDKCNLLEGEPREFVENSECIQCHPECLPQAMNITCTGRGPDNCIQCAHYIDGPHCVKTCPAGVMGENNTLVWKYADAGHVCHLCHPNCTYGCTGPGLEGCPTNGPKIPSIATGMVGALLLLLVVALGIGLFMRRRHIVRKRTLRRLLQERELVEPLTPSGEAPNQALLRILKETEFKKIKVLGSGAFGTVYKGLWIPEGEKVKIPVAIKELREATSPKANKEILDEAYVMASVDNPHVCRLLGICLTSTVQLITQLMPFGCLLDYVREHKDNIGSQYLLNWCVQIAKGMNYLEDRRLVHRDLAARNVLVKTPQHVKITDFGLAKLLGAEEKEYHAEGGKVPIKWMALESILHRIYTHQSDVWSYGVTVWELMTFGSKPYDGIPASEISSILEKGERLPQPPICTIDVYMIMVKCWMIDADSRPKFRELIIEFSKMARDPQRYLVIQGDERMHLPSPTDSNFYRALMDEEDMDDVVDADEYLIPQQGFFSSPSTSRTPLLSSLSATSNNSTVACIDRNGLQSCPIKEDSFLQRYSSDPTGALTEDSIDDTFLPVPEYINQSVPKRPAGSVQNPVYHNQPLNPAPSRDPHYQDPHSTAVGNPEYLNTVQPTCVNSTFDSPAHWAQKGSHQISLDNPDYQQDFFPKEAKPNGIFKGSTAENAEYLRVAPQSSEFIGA
Description: Inhibition of wild type EGFR (unknown origin) after 1.5 hrs by FRET-based Z'Lyte assay

inhibition [4]: Dose-dependent effect
IC50 [8]: 47 nM
inhibition [13]: Dose-dependent effect
IC50 [17]: 7 nM
IC50 [19]: 5670 nM
IC50 [20]: 305 nM
IC50 [24]: > 50000 nM
IC50 [25]: 44600 nM
IC50 [29]: 23900 nM
inhibition [30]: Dose-dependent effect
IC50 [33]: 292 nM
SMILES: C=CC(=O)Nc1cccc(Oc2nc(Nc3ccc(N4CCN(CC(=O)OCCCCCCOc5no[n+]([O-])c5S(=O)(=O)c5ccccc5)CC4)cc3OC)ncc2Cl)c1
Activity [1]: Non-toxic
inhibition [2]: Active
selectivity ratio [3]: 40
Activity [5]: Non-toxic
Ratio IC50 [6]: 60
selectivity ratio [7]: 40
Ratio IC50 [9]: 5
Ratio IC50 [10]: 5
Activity [11]: Non-toxic
selectivity ratio [12]: 40
IC50 [14]: 29 nM
selectivity ratio [15]: 40
Activity [16]: Dose-dependent effect
selectivity ratio [18]: 5
inhibition in vivo at 14 mg/kg [21]: 60%
Activity [22]: Active
Ratio IC50 [23]: 60
growth inhibition (GI) [26]: inactive
Activity [27]: Dose-dependent effect
Ratio IC50 [28]: 60
Ratio IC50 [31]: 60
growth inhibition (GI) [32]: inactive
